Assay results from ChEMBL document CHEMBL4177736, “Monoterpene indole alkaloid azine derivatives as MDR reversal agents” (Bioorg Med Chem, 2018).
Active and inactive are the calls of the source. The calls are words filed in the database; no cut-off is given here.

Key:
[1] = Inhibition of P-gp (unknown origin) expressed in mouse NIH/3T3 cells assessed as reduction in rhodamine 123 efflux at 20 uM incubated for 30 mins by flow cytometric analysis relative to control; format: cell-based; details: Homo sapiens
BHK-21 [2] = test: Cytotoxicity against wild type BHK21 cells assessed as reduction in cell viability at 20 uM after 72 hrs by MTT assay; format: cell-based, Mesocricetus auratus; details: hamster, bhk-21, 72 h
MRP1 = MRP1 (Homo sapiens, UniProt P33527); test: Inhibition of MRP1 (unknown origin) expressed in HEK293FlpIN cells assessed as reduction in calcein-AM efflux at 20 uM incubated for 30 mins by flow cytometric analysis relative to control; format: cell-based; details: HEK293FlpIN cells expressing MRP1, probe calcein-AM
MRP1, sequence (P33527 whole entry): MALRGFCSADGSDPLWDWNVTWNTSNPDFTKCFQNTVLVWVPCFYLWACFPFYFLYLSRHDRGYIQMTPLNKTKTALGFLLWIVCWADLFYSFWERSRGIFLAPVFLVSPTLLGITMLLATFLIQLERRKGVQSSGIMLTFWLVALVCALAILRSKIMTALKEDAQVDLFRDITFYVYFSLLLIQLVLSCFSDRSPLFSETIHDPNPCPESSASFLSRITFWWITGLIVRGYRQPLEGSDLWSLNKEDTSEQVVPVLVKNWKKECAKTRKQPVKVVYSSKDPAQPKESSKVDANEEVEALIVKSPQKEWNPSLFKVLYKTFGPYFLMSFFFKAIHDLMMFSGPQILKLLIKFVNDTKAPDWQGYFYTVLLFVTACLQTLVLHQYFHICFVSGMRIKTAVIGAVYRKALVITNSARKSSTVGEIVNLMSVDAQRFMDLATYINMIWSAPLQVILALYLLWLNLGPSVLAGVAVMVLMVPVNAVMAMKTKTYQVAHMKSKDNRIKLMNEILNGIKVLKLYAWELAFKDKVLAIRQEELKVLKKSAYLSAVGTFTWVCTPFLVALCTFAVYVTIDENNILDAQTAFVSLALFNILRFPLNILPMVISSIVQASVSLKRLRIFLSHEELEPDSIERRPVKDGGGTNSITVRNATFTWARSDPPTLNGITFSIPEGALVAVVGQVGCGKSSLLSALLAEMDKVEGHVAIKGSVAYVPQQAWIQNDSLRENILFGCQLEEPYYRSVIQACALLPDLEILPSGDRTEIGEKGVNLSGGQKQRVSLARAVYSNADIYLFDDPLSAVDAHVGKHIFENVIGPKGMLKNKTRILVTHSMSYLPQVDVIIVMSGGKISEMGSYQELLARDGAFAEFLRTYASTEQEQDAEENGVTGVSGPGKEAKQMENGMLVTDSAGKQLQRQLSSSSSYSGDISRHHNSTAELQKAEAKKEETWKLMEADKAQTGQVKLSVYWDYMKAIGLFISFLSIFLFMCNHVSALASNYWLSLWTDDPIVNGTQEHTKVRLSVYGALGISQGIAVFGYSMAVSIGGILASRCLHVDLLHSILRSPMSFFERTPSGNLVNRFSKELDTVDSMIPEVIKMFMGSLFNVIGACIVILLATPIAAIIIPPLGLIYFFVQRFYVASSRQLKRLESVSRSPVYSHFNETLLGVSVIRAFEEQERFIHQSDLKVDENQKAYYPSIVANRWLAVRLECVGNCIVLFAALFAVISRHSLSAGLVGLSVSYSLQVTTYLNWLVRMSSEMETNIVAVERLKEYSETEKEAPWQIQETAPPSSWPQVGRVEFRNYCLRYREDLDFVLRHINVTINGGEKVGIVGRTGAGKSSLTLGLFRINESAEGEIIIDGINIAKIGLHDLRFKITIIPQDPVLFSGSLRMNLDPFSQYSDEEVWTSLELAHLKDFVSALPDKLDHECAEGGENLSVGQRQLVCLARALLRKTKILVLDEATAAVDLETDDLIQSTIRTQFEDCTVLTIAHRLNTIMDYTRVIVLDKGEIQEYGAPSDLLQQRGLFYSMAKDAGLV

Homo sapiens [3] = species: Homo sapiens; test: Inhibition of P-gp (unknown origin) expressed in mouse NIH/3T3 cells assessed as potentiation of paclitaxel-induced cytotoxicity by measuring decrease in cell viability at 10 to 20 uM after 72 hrs by MTT assay; format: cell-based
NIH3T3 [4] = test: Cytotoxicity against mouse NIH/3T3 cells assessed as reduction in cell viability at 20 uM after 72 hrs by MTT assay; format: cell-based; details: nih3t3, 72 h
NIH3T3 [5] = test: Cytotoxicity against MDR1-expressing mouse NIH/3T3 cells assessed as growth inhibition at 20 uM after 72 hrs by MTT assay; format: functional, cell-based
BCRP (ABCG2) = target: T1, BCRP (ABCG2) (Homo sapiens, UniProt Q9UNQ0); test: Inhibition of BCRP (unknown origin) expressed in HEK293 cells assessed as reduction in mitoxantrone efflux at 20 uM incubated for 30 mins by flow cytometric analysis relative to control; format: cell-based; details: HEK293 cells expressing BCRP, probe mitoxantrone
T1 sequence (Q9UNQ0 whole entry): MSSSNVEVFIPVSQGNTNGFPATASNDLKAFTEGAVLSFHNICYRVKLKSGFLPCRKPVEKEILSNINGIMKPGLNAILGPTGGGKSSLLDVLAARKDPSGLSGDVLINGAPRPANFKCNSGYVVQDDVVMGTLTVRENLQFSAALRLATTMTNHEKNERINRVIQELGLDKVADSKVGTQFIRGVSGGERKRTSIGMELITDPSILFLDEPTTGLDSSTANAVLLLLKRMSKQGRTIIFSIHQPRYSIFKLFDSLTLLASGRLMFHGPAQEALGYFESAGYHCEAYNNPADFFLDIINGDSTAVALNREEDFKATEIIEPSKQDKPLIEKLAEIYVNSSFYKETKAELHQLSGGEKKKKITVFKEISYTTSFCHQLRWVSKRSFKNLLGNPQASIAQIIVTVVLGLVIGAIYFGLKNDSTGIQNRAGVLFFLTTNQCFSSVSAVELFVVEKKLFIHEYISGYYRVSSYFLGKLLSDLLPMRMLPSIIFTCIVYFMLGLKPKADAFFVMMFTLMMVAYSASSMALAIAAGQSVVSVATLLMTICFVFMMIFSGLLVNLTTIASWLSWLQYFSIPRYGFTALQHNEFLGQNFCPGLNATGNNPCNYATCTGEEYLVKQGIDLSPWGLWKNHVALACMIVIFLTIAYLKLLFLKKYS

BHK-21 [6] = test: Cytotoxicity against MRP1-expressing BHK21 cells assessed as growth inhibition at 20 uM after 72 hrs by MTT assay; format: functional; details: Mesocricetus auratus; for inhibition of growth at 20 µM: BHK-21, 72 h, read-out: GI
[7] = Cytotoxicity against HEK293FlpIN cells assessed as reduction in cell viability at 10 to 20 uM after 72 hrs by MTT assay; format: cell-based; details: human
[8] = target: T2, Multidrug resistance-associated protein 1 (Homo sapiens, UniProt P33527); test: Inhibition of MRP1 (unknown origin) expressed in HEK293FlpIN cells assessed as reduction in calcein-AM efflux incubated for 30 mins by flow cytometric analysis; format: cell-based
T2 sequence (P33527 whole entry): as the sequence (P33527 whole entry) above

[9] = target: T2, Multidrug resistance-associated protein 1; test: Inhibition of MRP1 (unknown origin) expressed in BHK21 cells assessed as GSH efflux at 20 uM incubated for 3 hrs measured every 30 secs for 2 mins by GSH reductase enzyme based assay (reference value: 100%); format: cell-based; details: 3 h, 20 µM
[10] = target: T2, Multidrug resistance-associated protein 1; test: Inhibition of MRP1 (unknown origin) expressed in HEK293FlpIN cells assessed as potentiation of vincristine-induced cytotoxicity by measuring decrease in cell growth at 10 to 20 uM after 72 hrs by MTT assay relative to control; format: cell-based; design: scale not given: the % may be the effect or the level left
Homo sapiens [11] = species: Homo sapiens; test: Cytotoxicity against MRP1-expressing HEK293FlpIN cells assessed as reduction in cell viability at 10 to 20 uM after 72 hrs by MTT assay; format: functional, cell-based
Homo sapiens [12] = species: Homo sapiens; test: Inhibition of P-gp (unknown origin) expressed in mouse NIH/3T3 cells assessed as reduction in rhodamine 123 efflux at 1 uM incubated for 30 mins by flow cytometric analysis relative to control; format: cell-based
Homo sapiens [13] = species: Homo sapiens; test: Inhibition of P-gp (unknown origin) expressed in mouse NIH/3T3 cells assessed as reduction in rhodamine 123 efflux at 10 uM incubated for 30 mins by flow cytometric analysis relative to control; format: cell-based
Homo sapiens [14] = species: Homo sapiens; details: 5 uM
Description: Inhibition of P-gp (unknown origin) expressed in mouse NIH/3T3 cells assessed as reduction in rhodamine 123 efflux at 5 uM incubated for 30 mins by flow cytometric analysis relative to control

Homo sapiens [15] = species: Homo sapiens; test: Inhibition of P-gp (unknown origin) expressed in mouse NIH/3T3 cells assessed as potentiation of paclitaxel-induced cytotoxicity by measuring decrease in cell viability at 10 uM after 72 hrs by MTT assay; format: cell-based

CC[C@H]1CN(C)[C@H]2Cc3c([nH]c4ccccc34)/C(=N/N=C\c3ccc(C)cc3)C[C@H]1[C@H]2C(=O)OC
inhibition [1]: 86.1%
Activity (BHK-21 [2]): Non-Toxic
inhibition at 0.5 h, 20 µM (MRP1): 20.4%
inhibition (Homo sapiens [3]): Active
Activity (NIH3T3 [4]): Non-Toxic
growth inhibition (GI) (NIH3T3 [5]): Active
inhibition at 0.5 h, 20 µM (BCRP (ABCG2)): 2.4%
inhibition of growth at 20 µM (BHK-21 [6]): 90 to 98%

CC[C@@H]1CN(C)[C@H]2Cc3c([nH]c4ccccc34)/C(=N/N=C\c3ccc(O)c(OC)c3)C[C@H]1[C@H]2C(=O)OC
Activity [7]: Non-Toxic
inhibition [1]: 24.3%
IC50 [8]: > 1 µM
inhibition (INH) ([8]; human, 0.5 h): Dose-dependent effect
Activity (BHK-21 [2]): Non-Toxic
inhibition (INH) [9]: Not Active
inhibition at 0.5 h, 20 µM (MRP1): 87.3%
Activity [10]: 60%
Activity (NIH3T3 [4]): Non-Toxic
inhibition (Homo sapiens [11]): inactive
growth inhibition (GI) (NIH3T3 [5]): Active
inhibition at 0.5 h, 20 µM (BCRP (ABCG2)): 9%
growth inhibition (GI) (BHK-21 [6]): Active

CC[C@H]1CN(C)[C@H]2Cc3c([nH]c4ccccc34)/C(=N/N=C\c3c[nH]c4ccccc34)C[C@H]1[C@H]2C(=O)OC
inhibition (Homo sapiens [12]): 38%
inhibition [1]: 116%
Activity (BHK-21 [2]): Non-Toxic
inhibition (Homo sapiens [13]): 73%
inhibition at 0.5 h, 20 µM (MRP1): 70.5%
Activity (NIH3T3 [4]): Non-Toxic
growth inhibition (GI) (NIH3T3 [5]): Active
inhibition at 0.5 h, 20 µM (BCRP (ABCG2)): 4.9%
inhibition of growth at 20 µM (BHK-21 [6]): 90 to 98%

CC[C@@H]1CN(C)[C@H]2Cc3c([nH]c4ccccc34)/C(=N/N=C\c3c[nH]c4ccccc34)C[C@H]1[C@H]2C(=O)OC
inhibition (Homo sapiens [12]): 18%
inhibition [1]: 102%
Activity (BHK-21 [2]): Non-Toxic
inhibition (Homo sapiens [13]): 70%
inhibition at 0.5 h, 20 µM (MRP1): 50.2%
Activity (NIH3T3 [4]): Non-Toxic
growth inhibition (GI) (NIH3T3 [5]): Active
inhibition at 0.5 h, 20 µM (BCRP (ABCG2)): 4.2%
inhibition of growth at 20 µM (BHK-21 [6]): 90 to 98%

COc1cc2c(cc1OC)CN(CCc1ccc(NC(=O)c3cccc4c(=O)c5cccc(OC)c5[nH]c34)cc1)CC2
inhibition (Homo sapiens [14]): 100%

CC[C@@H]1CN(C)[C@H]2Cc3c([nH]c4ccccc34)/C(=N/N=C\c3ccc(C)cc3)C[C@H]1[C@H]2C(=O)OC
inhibition [1]: 73.8%
inhibition (Homo sapiens [15]): Active
Activity (BHK-21 [2]): Non-Toxic
inhibition at 0.5 h, 20 µM (MRP1): 8.8%
Activity (NIH3T3 [4]): Non-Toxic
growth inhibition (GI) (NIH3T3 [5]): Active
inhibition at 0.5 h, 20 µM (BCRP (ABCG2)): 1.7%
inhibition of growth at 20 µM (BHK-21 [6]): 90 to 98%
